Data on six cell lines can be found in the supplement of paper PMC10307832.

What all share (assay): relative viability (nuclei count vs DMSO), 5 days (fraction); higher = more cells survive
Compound in the test “Apatinib + Vorinostat”: N#CC1(c2ccc(NC(=O)c3cccnc3NCc3ccncc3)cc2)CCCC1 [Apatinib] + O=C(CCCCCCC(=O)Nc1ccccc1)NO [Vorinostat] (partner 1 µM)
In a few lines: (§1)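 Nuclei were stained with Hoechst during a one-step fixation (final 0.05% Triton X-100, 1% formaldehyde, 1 ug/ml Hoechst) carried out 5 days after dosing, then counted on 4× images. The cells, lung cancer lines in 1536-well plates, had been dosed by pin tool the day after seeding with one drug alone or a fixed anchor-drug dose plus five library-drug doses (not always all listed) in √10 steps. Relative viability is the nuclei count in treated wells divided by that in vehicle wells, and each value is the median of duplicate plates.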

Compound in the test “Metformin + Vorinostat”: CN(C)C(=N)NC(=N)N [Metformin] + O=C(CCCCCCC(=O)Nc1ccccc1)NO [Vorinostat] (partner 1 µM)
Put shortly:
as §1

Compound in the test “Apatinib + Dasatinib”: N#CC1(c2ccc(NC(=O)c3cccnc3NCc3ccncc3)cc2)CCCC1 [Apatinib] + Cc1nc(Nc2ncc(C(=O)Nc3c(C)cccc3Cl)s2)cc(N2CCN(CCO)CC2)n1 [Dasatinib] (partner 0.075 µM)
Put shortly:
as §1

Compound in the test “Apatinib + Decitabine”: N#CC1(c2ccc(NC(=O)c3cccnc3NCc3ccncc3)cc2)CCCC1 [Apatinib] + Nc1ncn([C@H]2C[C@H](O)[C@@H](CO)O2)c(=O)n1 [Decitabine] (partner 2 µM)
In a few lines:
as §1

Regarding NCI-H1793, the relative viability was 0.948 with Apatinib + Vorinostat (first compound 0.08 µM); 0.779 with Apatinib + Vorinostat (first compound 0.253 µM); 0.773 with Apatinib + Vorinostat (first compound 0.8 µM); 0.522 with Apatinib + Vorinostat (first compound 2.53 µM); 0.628 in the test with Apatinib + Vorinostat (first compound 8 µM); 0.943 with Metformin + Vorinostat (first compound 10 µM). Also, the relative viability came out at 0.832 in the test with Metformin + Vorinostat (first compound 31.62 µM); 0.727 with Metformin + Vorinostat (first compound 100 µM); 0.662 in the test with Metformin + Vorinostat (first compound 316.23 µM); 1.02 in the test with Metformin + Vorinostat (first compound 1000 µM); 0.427 in the test with Apatinib + Dasatinib (first compound 0.08 µM); 0.345 with Apatinib + Dasatinib (first compound 0.253 µM). For the same cell line, the relative viability in the test with Apatinib + Dasatinib (first compound 0.8 µM) was 0.337; in the test with Apatinib + Dasatinib (first compound 2.53 µM), 0.37; in the test with Apatinib + Dasatinib (first compound 8 µM), 0.3; with Apatinib + Decitabine (first compound 0.08 µM), 0.555; with Apatinib + Decitabine (first compound 0.253 µM), 0.535; with Apatinib + Decitabine (first compound 0.8 µM) it was 0.516. Besides, the figures for the relative viability with Apatinib + Decitabine (first compound 2.53 µM) and with Apatinib + Decitabine (first compound 8 µM) were 0.541 and 0.564, respectively.
In the case of NCI-H358, the relative viability was determined as 0.762 with Apatinib + Vorinostat (first compound 0.08 µM); 0.866 with Apatinib + Vorinostat (first compound 0.253 µM); 0.616 in the test with Apatinib + Vorinostat (first compound 0.8 µM); 0.618 in the test with Apatinib + Vorinostat (first compound 2.53 µM); 0.578 with Apatinib + Vorinostat (first compound 8 µM); 0.546 with Metformin + Vorinostat (first compound 10 µM). Besides, the relative viability was determined as 0.584 with Metformin + Vorinostat (first compound 31.62 µM); 0.577 in the test with Metformin + Vorinostat (first compound 100 µM); 0.578 in the test with Metformin + Vorinostat (first compound 316.23 µM); 0.525 in the test with Metformin + Vorinostat (first compound 1000 µM); 0.188 with Apatinib + Dasatinib (first compound 0.08 µM); 0.151 with Apatinib + Dasatinib (first compound 0.253 µM). Further, the relative viability was found to be 0.139 with Apatinib + Dasatinib (first compound 0.8 µM); 0.206 with Apatinib + Dasatinib (first compound 2.53 µM); 0.186 in the test with Apatinib + Dasatinib (first compound 8 µM); 0.225 in the test with Apatinib + Decitabine (first compound 0.08 µM); 0.219 with Apatinib + Decitabine (first compound 0.253 µM); 0.24 in the test with Apatinib + Decitabine (first compound 0.8 µM). The relative viability in the test with Apatinib + Decitabine (first compound 2.53 µM) is 0.218; with Apatinib + Decitabine (first compound 8 µM), 0.316.
For the cell line NCI-H2342, the relative viability with Apatinib + Vorinostat (first compound 0.08 µM) amounted to 0.625; in the test with Apatinib + Vorinostat (first compound 0.253 µM), 0.655; with Apatinib + Vorinostat (first compound 0.8 µM) it was 0.763; in the test with Apatinib + Vorinostat (first compound 2.53 µM) it was 0.685; in the test with Apatinib + Vorinostat (first compound 8 µM), 0.72; in the test with Metformin + Vorinostat (first compound 31.62 µM), 0.868. The relative viability in the test with Metformin + Vorinostat (first compound 100 µM) turned out to be 0.837; with Metformin + Vorinostat (first compound 316.23 µM), 0.745; with Metformin + Vorinostat (first compound 1000 µM), 0.853; in the test with Apatinib + Dasatinib (first compound 0.08 µM) it was 0.267; in the test with Apatinib + Dasatinib (first compound 0.253 µM) it was 0.295; with Apatinib + Dasatinib (first compound 0.8 µM), 0.307. Further, the relative viability with Apatinib + Dasatinib (first compound 2.53 µM) was 0.28; with Apatinib + Dasatinib (first compound 8 µM), 0.283; with Apatinib + Decitabine (first compound 0.08 µM) it was 0.704; with Apatinib + Decitabine (first compound 0.253 µM) it was 0.767; with Apatinib + Decitabine (first compound 0.8 µM) it was 0.709; with Apatinib + Decitabine (first compound 2.53 µM), 0.799. The relative viability in the test with Apatinib + Decitabine (first compound 8 µM) came to 0.791.
On to LCLC-97TM1, for which the relative viability was 0.911 with Apatinib + Vorinostat (first compound 0.08 µM); 0.758 with Apatinib + Vorinostat (first compound 0.253 µM); 0.695 with Apatinib + Vorinostat (first compound 0.8 µM); 0.577 in the test with Apatinib + Vorinostat (first compound 2.53 µM); 0.337 with Apatinib + Vorinostat (first compound 8 µM); 0.675 in the test with Metformin + Vorinostat (first compound 31.62 µM). In addition, the relative viability with Metformin + Vorinostat (first compound 100 µM) is 0.711; with Metformin + Vorinostat (first compound 316.23 µM), 0.601; with Metformin + Vorinostat (first compound 1000 µM), 0.704; with Apatinib + Dasatinib (first compound 0.08 µM), 0.824; in the test with Apatinib + Dasatinib (first compound 0.253 µM), 0.763; with Apatinib + Dasatinib (first compound 0.8 µM) it was 0.767. In addition, the relative viability was 0.711 with Apatinib + Dasatinib (first compound 2.53 µM); 0.504 with Apatinib + Dasatinib (first compound 8 µM); 0.268 with Apatinib + Decitabine (first compound 0.08 µM); 0.244 with Apatinib + Decitabine (first compound 0.253 µM); 0.237 in the test with Apatinib + Decitabine (first compound 0.8 µM); 0.185 with Apatinib + Decitabine (first compound 2.53 µM). Also, the relative viability with Apatinib + Decitabine (first compound 8 µM) was found to be 0.228.
As to NCI-H1944, the relative viability with Apatinib + Vorinostat (first compound 0.08 µM) turned out to be 0.519; with Apatinib + Vorinostat (first compound 0.253 µM) it was 0.526; in the test with Apatinib + Vorinostat (first compound 0.8 µM), 0.454; with Apatinib + Vorinostat (first compound 2.53 µM), 0.422; in the test with Apatinib + Vorinostat (first compound 8 µM), 0.419; with Metformin + Vorinostat (first compound 10 µM) it was 0.465. Further, the relative viability with Metformin + Vorinostat (first compound 31.62 µM) is 0.651; in the test with Metformin + Vorinostat (first compound 100 µM), 0.571; in the test with Metformin + Vorinostat (first compound 316.23 µM), 0.59; with Metformin + Vorinostat (first compound 1000 µM), 0.631; in the test with Apatinib + Dasatinib (first compound 0.08 µM), 0.247; with Apatinib + Dasatinib (first compound 0.253 µM) it was 0.204. Besides, the relative viability with Apatinib + Dasatinib (first compound 0.8 µM) stood at 0.208; with Apatinib + Dasatinib (first compound 2.53 µM), 0.254; with Apatinib + Dasatinib (first compound 8 µM), 0.249; with Apatinib + Decitabine (first compound 0.08 µM), 0.41; with Apatinib + Decitabine (first compound 0.253 µM), 0.466; in the test with Apatinib + Decitabine (first compound 0.8 µM) it was 0.401. Also, the values for the relative viability with Apatinib + Decitabine (first compound 2.53 µM) and in the test with Apatinib + Decitabine (first compound 8 µM) were 0.421 and 0.504, respectively.
In the case of 201T, the relative viability with Apatinib + Vorinostat (first compound 0.08 µM) worked out at 0.724; in the test with Apatinib + Vorinostat (first compound 0.253 µM), 0.918; with Apatinib + Vorinostat (first compound 0.8 µM) it was 0.898; with Apatinib + Vorinostat (first compound 2.53 µM), 0.969; in the test with Apatinib + Vorinostat (first compound 8 µM), 0.966; in the test with Metformin + Vorinostat (first compound 31.62 µM), 1.02. In addition, the relative viability with Metformin + Vorinostat (first compound 100 µM) is 0.972; in the test with Metformin + Vorinostat (first compound 316.23 µM), 0.98; in the test with Metformin + Vorinostat (first compound 1000 µM) it was 1.03; with Apatinib + Dasatinib (first compound 0.08 µM), 0.617; with Apatinib + Dasatinib (first compound 0.253 µM) it was 0.511; with Apatinib + Dasatinib (first compound 0.8 µM) it was 0.525. Moreover, the relative viability in the test with Apatinib + Dasatinib (first compound 2.53 µM) stood at 0.502; with Apatinib + Dasatinib (first compound 8 µM), 0.423; with Apatinib + Decitabine (first compound 0.08 µM) it was 0.863; with Apatinib + Decitabine (first compound 0.253 µM), 0.895; with Apatinib + Decitabine (first compound 0.8 µM), 0.842; with Apatinib + Decitabine (first compound 2.53 µM), 0.85. Further, the relative viability with Apatinib + Decitabine (first compound 8 µM) came out at 0.781.
